Measurements: patent US8017581B1, “MSH-agonist tripeptide conjugates” (Centre National de la Recherche Scientifique (CNRS), priority 2004, dated 2011)
Non-standard residues stand in square brackets, D forms with d. Residues, ends and D or L forms follow the SMILES beside them. *: point of attachment. Palmitoyl = CCCCCCCCCCCCCCCC(=O)*; Nle = CCCC[C@H](N)C(=O)O

Experiments:
[1] = target: T1, MC1 receptor (Homo sapiens, UniProt Q01726); assay: cAMP production in M4Be human melanocyte cells (EC50 determination); type: cell-based; details: mean of at least two sets of independent experiments
T1 construct: endogenous in cells; host or cells: M4Be human melanocyte cell line
Description: The M4Be human cell line (Jacubovich et al. Cancer Immunol. Immunother. 1979, 7, 59-64), a melanocyte cell line capable of producing melanins, was used in this study to determine the EC50 values.
The cells were maintained in Dulbecco's modified Eagle medium, with 10% of FCS, 1 mM of glutamine, 100 U/ml of penicillin and 10^−4 g/ml of streptomycin. All the cell lines were maintained at 37° C. in a 5% CO2 atmosphere, and the cell culture media were renewed every two days. The cells were plated onto a 96-well plate (Nunc, Roskilde, Denmark) 24 hours before contact with the peptides.
(§1) Briefly, the cells plated out the day before were incubated for 1 hour with 10^−4 M of adenine (Sigma) and then for 10 minutes in Krebs Ringer Hepes medium with 10^−4 M of isobutyl-1-methylxanthine (Sigma), 10^−4 M of 4-[(3-butoxy-4-methoxyphenyl)methyl]-2-imidazolidinone (Calbiochem) and tripeptides according to the invention, at 10^−7 M.
(§2) After this period of time, cell lysis was carried out according to the manufacturer's protocol.
The cAMP content was measured using a competition binding assay kit (RPN225, Amersham Pharmacia Biotech) according to the manufacturer's instructions. Each independent experiment was carried out at least twice in triplicate.
Determination of the EC50:
The curves were adjusted and the EC50 values were determined with nonlinear regression in the GraphPad Prism (GraphPad software). Each EC50 value was the mean of at least two sets of independent experiments.

[2] = target: T2, MC1 receptor (Mus musculus, UniProt Q01727); assay: cAMP induction on Cloudman S91 mouse melanoma cell line (preliminary screening); type: cell-based; details: tripeptide at 50 nM, percentage of the maximum response with control peptide (1) at 50 nM
T2 construct: The Cloudman S91 mouse melanoma cell line (Yasumara et al. Science. 154, pages 1186-1189) was used for the preliminary screening; endogenous in cells; host or cells: Cloudman S91 mouse melanoma cells
Description: The Cloudman S91 mouse melanoma cell line (Yasumara et al. Science. 154, pages 1186-1189) was used for the preliminary screening. The cells were maintained in HAM F10 with 10% of horse serum, 2% of fetal calf serum (FCS), 1 mM of glutamine, 100 U/ml of penicillin and 10^−4 g/ml of streptomycin (Eurobio, Les Ulis, France). All the cell lines were maintained at 37° C. in a 5% CO2 atmosphere, and the cell culture media were renewed every two days. The cells were plated out onto a 96-well plate (Nunc, Roskilde, Denmark) 24 hours before contact with the peptides.
as §1, §2
The cAMP content was measured using a competition binding assay kit (RPN225, Amersham Pharmacia Biotech) according to the manufacturer's instructions. […]
Thus, 1 tripeptide according to the invention was tested, at a concentration of 50 nM, on the induction of cAMP, which was calculated with respect to the response of cAMP production induced by α-MSH (50 nM).

T1 sequence (Q01726 whole entry): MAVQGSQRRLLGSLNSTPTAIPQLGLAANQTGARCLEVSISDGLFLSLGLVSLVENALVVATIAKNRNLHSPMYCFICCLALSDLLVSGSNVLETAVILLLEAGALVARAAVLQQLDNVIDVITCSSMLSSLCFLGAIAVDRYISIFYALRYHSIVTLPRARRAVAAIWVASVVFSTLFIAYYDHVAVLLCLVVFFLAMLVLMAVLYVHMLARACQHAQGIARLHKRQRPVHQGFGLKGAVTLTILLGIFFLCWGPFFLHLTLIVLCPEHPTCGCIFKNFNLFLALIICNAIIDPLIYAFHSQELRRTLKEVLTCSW
T2 sequence (Q01727 whole entry): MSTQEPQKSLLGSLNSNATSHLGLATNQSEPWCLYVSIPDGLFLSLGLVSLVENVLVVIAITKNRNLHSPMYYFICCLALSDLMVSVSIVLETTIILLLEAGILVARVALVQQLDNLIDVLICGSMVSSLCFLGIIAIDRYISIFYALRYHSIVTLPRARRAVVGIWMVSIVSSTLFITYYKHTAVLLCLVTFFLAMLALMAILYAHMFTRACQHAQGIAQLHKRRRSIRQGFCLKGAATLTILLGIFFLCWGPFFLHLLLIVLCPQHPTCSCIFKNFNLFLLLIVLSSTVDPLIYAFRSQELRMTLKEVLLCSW

EC50 [1] | % cAMP induction [2] | SMILES
4 nM |  | CCCC[C@H](NC(C)=O)C(=O)N[C@@H](C)C(=O)N[C@@H](Cc1c[nH]cn1)C(=O)N[C@H](Cc1ccccc1)C(=O)N[C@@H](CCCNC(=N)N)C(=O)N[C@@H](Cc1c[nH]c2ccccc12)C(N)=O [control peptide, Ac-Nle-Ala-His-(D)Phe-Arg-Trp-NH2, reference compound] (Ac-[Nle]AH[dF]RW-NH2)
17.3 nM |  | CCCCCCCCCCCCCCCC(=O)N[C@@H](Cc1c[nH]cn1)C(=O)N[C@H](Cc1ccccc1)C(=O)N[C@@H](Cc1c[nH]c2ccccc12)C(N)=O [tripeptide 2, Palm-His-DPhe-Trp-NH2] (Palmitoyl-His-[dF]-Trp-NH2)
2.3 nM | 147% | CCCCCCCCCCCCCCCC(=O)N[C@@H](Cc1c[nH]cn1)C(=O)N[C@H](Cc1ccccc1)C(=O)N[C@@H](CCCNC(=N)N)C(N)=O [tripeptide 1, Palm-His-DPhe-Arg-NH2] (Palmitoyl-His-[dF]-Arg-NH2)
